What was measured:
[1] = Stability over time (three-month storage tests, visual); format: physicochemical; settings: purified water
Deodorant activity test = settings: γ-CD 1 w/w %, Compound E 0.1 w/w %
Method: The predetermined samples shown in Tables 1 to 5 were tested for deodorant activity against ammonia, acetic acid, isovaleric acid, and nonenal. Now, the test, including the test conditions, will be specifically described. Test Items: The deodorant test and the test to gain SEK mark approval for textiles according to the certification standards of the Japan Textile Evaluation Technology Council (4 ml of sample liquid was applied to a cotton fabric and dried for a period of from 30 minutes to 1 hour. Then, the concentration of the gas volatilized from the cotton fabric was measured by a detection tube and gas chromatography) Odor tested: Ammonia, acetic acid, isovaleric acid, and nonenal Samples used: Sample 1): Compound E 0.1%+γ-CD 1%+purified water 98.9% • Sample 2): Compound E 0.1%+γ-CD 5%+purified water 94.9% Initial gas concentration: Ammonia: 100 ppm (100 cm^2) • Acetic acid: 50 ppm (100 cm^2) • Isovaleric acid: about 38 ppm (48 cm^2) • Nonenal: about 14 ppm (48 cm^2)

CCCCCCCCCCCCCCCCCC[N+](C)(C)CCC[Si](OCC)(OCC)OCC.[Cl-] [Compound E, Octadecyl dimethyl(3-triethoxysilylpropyl)ammonium chloride]
Change Over 3 Months (Accelerated Test at 40° C., Cold Test at 5° C., Ambient Test at 25° C.) ([1]; α-CD 1 w/w %, Compound E 0.8 w/w %): Clear but some precipitation was observed | Change Over 3 Months (Accelerated Test at 40° C., Cold Test at 5° C., Ambient Test at 25° C.) ([1]; α-CD 1 w/w %, Compound E 0.9 w/w %): Clear but some precipitation was observed | Change Over 3 Months (Accelerated Test at 40° C., Cold Test at 5° C., Ambient Test at 25° C.) ([1]; α-CD 1 w/w %, Compound E 1 w/w %): Clear but some precipitation was observed | Change Over 3 Months (Accelerated Test at 40° C., Cold Test at 5° C., Ambient Test at 25° C.) ([1]; α-CD 7 w/w %, Compound E 0.1 w/w %): Stable | Change Over 3 Months (Accelerated Test at 40° C., Cold Test at 5° C., Ambient Test at 25° C.) ([1]; α-CD 7 w/w %, Compound E 0.2 w/w %): Stable | Change Over 3 Months (Accelerated Test at 40° C., Cold Test at 5° C., Ambient Test at 25° C.) ([1]; α-CD 7 w/w %, Compound E 0.3 w/w %): Stable | Change Over 3 Months (Accelerated Test at 40° C., Cold Test at 5° C., Ambient Test at 25° C.) ([1]; α-CD 7 w/w %, Compound E 0.4 w/w %): Stable | Change Over 3 Months (Accelerated Test at 40° C., Cold Test at 5° C., Ambient Test at 25° C.) ([1]; α-CD 7 w/w %, Compound E 0.5 w/w %): Stable | Change Over 3 Months (Accelerated Test at 40° C., Cold Test at 5° C., Ambient Test at 25° C.) ([1]; α-CD 7 w/w %, Compound E 0.6 w/w %): Stable | Change Over 3 Months (Accelerated Test at 40° C., Cold Test at 5° C., Ambient Test at 25° C.) ([1]; α-CD 7 w/w %, Compound E 0.7 w/w %): Stable | Change Over 3 Months (Accelerated Test at 40° C., Cold Test at 5° C., Ambient Test at 25° C.) ([1]; α-CD 7 w/w %, Compound E 0.8 w/w %): Stable | Change Over 3 Months (Accelerated Test at 40° C., Cold Test at 5° C., Ambient Test at 25° C.) ([1]; α-CD 7 w/w %, Compound E 0.9 w/w %): Stable | Change Over 3 Months (Accelerated Test at 40° C., Cold Test at 5° C., Ambient Test at 25° C.) ([1]; α-CD 7 w/w %, Compound E 1 w/w %): Stable | Change Over 3 Months (Accelerated Test at 40° C., Cold Test at 5° C., Ambient Test at 25° C.) ([1]; β-CD 1 w/w %, Compound E 0.1 w/w %): Not changed | Change Over 3 Months (Accelerated Test at 40° C., Cold Test at 5° C., Ambient Test at 25° C.) ([1]; β-CD 1 w/w %, Compound E 0.2 w/w %): Not changed | Change Over 3 Months (Accelerated Test at 40° C., Cold Test at 5° C., Ambient Test at 25° C.) ([1]; β-CD 1 w/w %, Compound E 0.3 w/w %): Not changed | Change Over 3 Months (Accelerated Test at 40° C., Cold Test at 5° C., Ambient Test at 25° C.) ([1]; β-CD 1 w/w %, Compound E 0.4 w/w %): Not changed | Change Over 3 Months (Accelerated Test at 40° C., Cold Test at 5° C., Ambient Test at 25° C.) ([1]; β-CD 1 w/w %, Compound E 0.5 w/w %): Not changed | Change Over 3 Months (Accelerated Test at 40° C., Cold Test at 5° C., Ambient Test at 25° C.) ([1]; β-CD 1 w/w %, Compound E 0.6 w/w %): Not changed | Change Over 3 Months (Accelerated Test at 40° C., Cold Test at 5° C., Ambient Test at 25° C.) ([1]; β-CD 1 w/w %, Compound E 0.7 w/w %): Not changed | Change Over 3 Months (Accelerated Test at 40° C., Cold Test at 5° C., Ambient Test at 25° C.) ([1]; β-CD 1 w/w %, Compound E 0.8 w/w %): Not changed | Change Over 3 Months (Accelerated Test at 40° C., Cold Test at 5° C., Ambient Test at 25° C.) ([1]; β-CD 1 w/w %, Compound E 0.9 w/w %): Not changed | Change Over 3 Months (Accelerated Test at 40° C., Cold Test at 5° C., Ambient Test at 25° C.) ([1]; β-CD 1 w/w %, Compound E 1 w/w %): Not changed | Change Over 3 Months (Accelerated Test at 40° C., Cold Test at 5° C., Ambient Test at 25° C.) ([1]; γ-CD 10 w/w %, Compound E 0.1 w/w %): Precipitated | Change Over 3 Months (Accelerated Test at 40° C., Cold Test at 5° C., Ambient Test at 25° C.) ([1]; γ-CD 10 w/w %, Compound E 0.2 w/w %): Precipitated | Change Over 3 Months (Accelerated Test at 40° C., Cold Test at 5° C., Ambient Test at 25° C.) ([1]; γ-CD 10 w/w %, Compound E 0.3 w/w %): Precipitated | Change Over 3 Months (Accelerated Test at 40° C., Cold Test at 5° C., Ambient Test at 25° C.) ([1]; γ-CD 10 w/w %, Compound E 0.4 w/w %): Precipitated | Change Over 3 Months (Accelerated Test at 40° C., Cold Test at 5° C., Ambient Test at 25° C.) ([1]; γ-CD 10 w/w %, Compound E 0.5 w/w %): Precipitated | Change Over 3 Months (Accelerated Test at 40° C., Cold Test at 5° C., Ambient Test at 25° C.) ([1]; γ-CD 10 w/w %, Compound E 0.6 w/w %): Precipitated | Change Over 3 Months (Accelerated Test at 40° C., Cold Test at 5° C., Ambient Test at 25° C.) ([1]; γ-CD 10 w/w %, Compound E 0.7 w/w %): Precipitated | Change Over 3 Months (Accelerated Test at 40° C., Cold Test at 5° C., Ambient Test at 25° C.) ([1]; γ-CD 10 w/w %, Compound E 0.8 w/w %): Precipitated | Change Over 3 Months (Accelerated Test at 40° C., Cold Test at 5° C., Ambient Test at 25° C.) ([1]; γ-CD 10 w/w %, Compound E 0.9 w/w %): Precipitated | Change Over 3 Months (Accelerated Test at 40° C., Cold Test at 5° C., Ambient Test at 25° C.) ([1]; γ-CD 10 w/w %, Compound E 1 w/w %): Precipitated | Deodorant Effect: Deodorant Activity Test (by Detection Tube and Gas Chromatography) (Deodorant activity test): Confirmed

Source: US20150296790A1, “SILICON-CONTAINING COMPOUND AQUEOUS SOLUTION AND ANTIBACTERIAL/ANTIVIRAL AGENT INCLUDING SAID SOLUTION” (JEX CO., LTD., priority 2012, published 2015)
